{
  "source": "patent US11841369B2",
  "about": "“Method for improving quality of therapeutic cell through real-time glutathione measurement” (CELL2IN, INC., priority 2017, dated 2023)",
  "key": {"hUC-MSCs [1]": {"tested_on": "hUC-MSCs", "experiment": "CFU-F assay of hUC-MSCs", "type": "cell-based, human", "method": "(§1) The inventors observed an effect of the material on stem cells by treating each stem cells with a material for enhancing a glutathione evaluation parameter. When hUC-MSCs were subcultured in a L-AA2G-containing medium, CFU-F, migration capacity, and an anti-inflammatory effect were observed. A CFU-F assay (n=3) was performed by treating hUC-MSCs with 125 or 250 μg/mL of AA2G for three days. As shown in FIGS. 16A and 16B, it was confirmed that, when AA2G was treated, CFU-F increased. In addition, as hUC-MSCs were treated with 125 or 250 μg/mL of AA2G for three days, PDGF-AA-induced migration capacity (n=3) was analyzed. As shown in FIGS. 17A and 17B, it was confirmed that the migration capacity was increased by AA2G treatment. In addition, the reduction in T cell proliferation, a reduction in T cell differentiation, and the promotion of Treg cell differentiation were observed by treating hUC-MSCs with 125 or 250 μg/mL of AA2G for three days. […] Meanwhile, hUC-MSCs were cultured with a glutathione precursor such as γ-glutamyl cysteine (GGC, 0.1, 0.25, and 0.5 mM). A CFU-F assay (n=3) was performed by treating hUC-MSCs with each concentration of GGC for 2 hours. […] In addition, SDF1α and PDGF-AA-induced migration capacities (n=3) were analyzed for hUC-MSCs without treatment with GGC, and SDF1α- and PDGF-AA-induced migration abilities (n=3) were analyzed by treating hUC-MSCs with the increasing concentrations of GGC. STI571 was used as a PDGFR kinase inhibitor. As shown in FIGS. 20A to 20C, it was confirmed that, according to an increase in GGC treatment concentration, SDF1α- and PDGF-AA-induced migration capacities were enhanced. A CFU-F assay (n=3) was performed by treating hUC-MSCs with 0.2, 1, 2, and 4 μM ferrostatin-1 and 0.1, 0.5, 1, and 2 μM liproxstatin-1 for 24 hours."}, "hUC-MSCs [2]": {"tested_on": "hUC-MSCs", "experiment": "Oxidative stress resistance capacity (ORC) analysis with RSL3", "type": "cell-based, human", "settings": "hUC-MSCs, 0, 2.5, 5 or 10 μM liproxstatin-1 with 0, 0.5 or 1 μM RSL3; concentration-dependent", "method": "In addition, GH is calculated as the coefficient of variation or robust coefficient of variation of cellular FR. GRC refers to a value obtained by real-time monitoring of FR after living cells are treated with an oxidizing agent, as calculated by dividing a value obtained by subtracting AUC of a group treated with 0.1-100 mM N-ethylmaleimide (NEM) from FR AUC of an oxidizing agent (diamide, H2O2, etc.)-treated group by a value obtained by subtracting the AUC of NEM-treated group from AUC of the untreated control, and multiplying the resulting value by 100. The FR of the NEM-treated group is a value for increasing the sensitivity of a GRC value by treating it as the blank value of the FR of the cells of interest. […] To remove the MitoFreSH-Tracer from the medium before measurement, the medium was exchanged with fresh 10 mM HEPES-containing HBSS, and a fluorescence image was obtained using a confocal imaging system, Operetta. By comparing GSH levels quantified from control cells not treated with RSL3 or control cells before treated with RSL3, the distribution of GSH expression-changed cells was calculated. Based on the point where the distribution histogram is divided into two peaks, the cells were divided into GSH^High cells (right peak) and GSH^Low cells (left peak), and then a ratio of corresponding cells was expressed as a percentage (%). […]"}, "T cells": {"tested_on": "T cells", "experiment": "Anti-inflammatory effect of treated hUC-MSCs: T cell proliferation, T cell differentiation, Treg cell differentiation", "type": "cell-based", "settings": "for T cell differentiation capacity / T cell proliferation ability / Treg cell differentiation: hUC-MSCs treated with 1 μM ferrostatin-1 24 h, 0.2 mM GGC 2 h or 2 mM GSH-EE 2 h", "method": "The inventors observed an effect of the material on stem cells by treating each stem cells with a material for enhancing a glutathione evaluation parameter. When hUC-MSCs were subcultured in a L-AA2G-containing medium, CFU-F, migration capacity, and an anti-inflammatory effect were observed. A CFU-F assay (n=3) was performed by treating hUC-MSCs with 125 or 250 μg/mL of AA2G for three days. As shown in FIGS. 16A and 16B, it was confirmed that, when AA2G was treated, CFU-F increased. In addition, as hUC-MSCs were treated with 125 or 250 μg/mL of AA2G for three days, PDGF-AA-induced migration capacity (n=3) was analyzed. As shown in FIGS. 17A and 17B, it was confirmed that the migration capacity was increased by AA2G treatment. In addition, the reduction in T cell proliferation, a reduction in T cell differentiation, and the promotion of Treg cell differentiation were observed by treating hUC-MSCs with 125 or 250 μg/mL of AA2G for three days.\nIn addition, hUC-MSCs were cultured with ferrostatin-1 (0.2, 1, 2 and 4 μM) and liproxstatin-1 (0.1, 0.5, 1 and 2 μM), which control a glutathione level in cells by inhibiting lipid oxidation. […] Meanwhile, the hUC-MSCs were treated with 1 μM ferrostatin-1 for 24 hours, 0.2 mM GGC for 2 hours, and 2 mM GSH-EE for 2 hours. As a result, the reduction in T cell proliferation ability and the reduction in T cell differentiation capacity were observed, and promotion of Treg cell differentiation was observed."}, "hUC-MSCs [3]": {"tested_on": "hUC-MSCs", "experiment": "SDF1α- and PDGF-AA-induced migration capacity of hUC-MSCs", "type": "cell-based, human", "settings": "increasing GGC concentration (0.1, 0.25 mM)", "method": "as §1, with “enhanced.” for “enhanced. A CFU-F assay (n=3) was performed by treating hUC-MSCs with 0.2, 1, 2, and 4 μM ferrostatin-1 and 0.1, 0.5, 1, and 2 μM liproxstatin-1 for 24 hours.”"}, "hES-MSCs [4]": {"tested_on": "hES-MSCs", "experiment": "PDGF-AA-induced cell migration of unsorted hES-MSCs", "type": "cell-based, human", "settings": "hES-MSCs not sorted by FreSH-Tracer", "method": "Main factors for determining the therapeutic efficacy of hBM-MSCs, namely a colony forming unit-fibroblast (CFU-F) and a graft survival rate, were evaluated in cell culture models.\nIn order to test whether direct control of a GSH level in stem cells leads to changes in cell functions, hES-MSCs sorted by FreSH-Tracer were treated with buthionine sulfoximine (BSO; glutathione synthesis inhibitor) and glutathione ethyl ester (GSH-EE). When GSH was decreased in cells by treating GSH^High cells with BSO (80 μM, 24 h), it was confirmed that CFU-F increased, and on the other hand, when GSH was increased by treating GSH^Low cells with GSH-EE (1 mM, 2 h), it was confirmed that CFU-F decreased (FIG. 13A). In addition, it was confirmed that, when hES-MSCs which were not sorted by FreSH-Tracer were treated with BSO or GSH-EE, PDGF-AA-induced cell migration capacity was decreased or increased, respectively (FIG. 13B)."}, "hES-MSCs [5]": {"tested_on": "hES-MSCs", "experiment": "CFU-F of FreSH-Tracer-sorted hES-MSCs", "type": "cell-based, human", "method": "Twelve hours after hES-MSCs were seeded in […] tissue culture media at a density of 3×10^6 cells/mL, the cells were washed two times with 30 mL of PBS, and labeled with an EGM-2 MV culture solution containing 2 μM FreSH for 2 hours. After the two hours, the cells were washed with 2 μM FreSH-containing PBS twice and treated with a TrypsinLE (Invitrogen) solution to detach the cells, and then trypsin was inactivated with a fresh EGM-2 MV medium containing 2 μM FreSH. Afterward, the cells were centrifuged at 4° C. and 2000 rpm for 20 minutes, and resuspended in a fresh EGM-2 MV medium containing 2 μM FreSH to have a density of 5×10^7 cells/mL. The suspension was diluted 1/5 with PBS containing 2 μM FreSH immediately before loading for FACS (diluted by approximately 1 mL at a time to maintain a temperature of 4° C.).\nAfterward, under the following conditions, FACS Instruction (BD ARIAIII, laser at wavelengths of 405 (for measuring F510) and 488 (for measuring F580), nozzle size: 100 μm, 2,000-3,000 events/sec), FACS analysis was performed by gating the cells corresponding to the upper 3.9-35% and the lower 3.9-35% of total cells according to the F510/F580 ratio. […]\nMain factors for determining the therapeutic efficacy of hBM-MSCs, namely a colony forming unit-fibroblast (CFU-F) and a graft survival rate, were evaluated in cell culture models. […]"}},
  "data": [
    {"smiles": "Clc1cccc(CN=C2Nc3ccccc3NC23CCNCC3)c1", "note": "[liproxstatin-1]", "values": [
      {"measurement": "CFU-F", "setting": "hUC-MSCs [1]; ferrostatin-1 0.2, 1, 2, 4 μM or liproxstatin-1 0.1, 0.5, 1, 2 μM, 24 hours", "value": "improved"},
      {"measurement": "ratio of the GSH^High cells (ORC)", "setting": "hUC-MSCs [2]", "value": "increased"},
      {"measurement": "anti-inflammatory effect of the hUC-MSCs", "setting": "T cells; ferrostatin-1 or liproxstatin-1 treatment (FIGS. 27, 28A to 28C)", "value": "did not alter"}
    ]},
    {"smiles": "N[C@@H](CCC(=O)N[C@@H](CS)C(=O)O)C(=O)O", "note": "[GGC, γ-glutamyl cysteine]", "values": [
      {"measurement": "CFU-F", "setting": "hUC-MSCs [1]; GGC 0.1, 0.25 and 0.5 mM, 2 hours", "value": "increased"},
      {"measurement": "PDGF-AA-induced migration capacity", "setting": "hUC-MSCs [3]", "value": "enhanced"},
      {"measurement": "SDF1α-induced migration capacity", "setting": "hUC-MSCs [3]", "value": "enhanced"},
      {"measurement": "T cell differentiation capacity", "setting": "T cells", "value": "reduction"},
      {"measurement": "T cell proliferation ability", "setting": "T cells", "value": "reduction"},
      {"measurement": "Treg cell differentiation", "setting": "T cells", "value": "promotion"},
      {"measurement": "anti-inflammatory effect", "setting": "T cells; hUC-MSCs with GGC treatment (FIGS. 27, 28A to 28C)", "value": "no change"}
    ]},
    {"smiles": "CCOC(=O)CNC(=O)[C@H](CS)NC(=O)CC[C@H](N)C(=O)O", "note": "[GSH-EE, glutathione ethyl ester]", "values": [
      {"measurement": "T cell differentiation capacity", "setting": "T cells", "value": "reduction"},
      {"measurement": "T cell proliferation ability", "setting": "T cells", "value": "reduction"},
      {"measurement": "Treg cell differentiation", "setting": "T cells", "value": "promotion"},
      {"measurement": "PDGF-AA-induced cell migration capacity", "setting": "hES-MSCs [4]", "value": "increased"},
      {"measurement": "CFU-F", "setting": "hES-MSCs [5]; GSH^Low hES-MSCs, GSH-EE 1 mM, 2 h", "value": "decreased"}
    ]},
    {"smiles": "CCCCS(=N)(=O)CCC(N)C(=O)O", "note": "(centres unmarked) [BSO, buthionine sulfoximine]", "values": [
      {"measurement": "PDGF-AA-induced cell migration capacity", "setting": "hES-MSCs [4]", "value": "decreased"},
      {"measurement": "CFU-F", "setting": "hES-MSCs [5]; GSH^High hES-MSCs, BSO 80 μM, 24 h", "value": "increased"}
    ]}
  ]
}
